Consider eleven compounds from article PMC12910644 (Journal of Medicinal Chemistry, 2026).

A value given as a limit tells only on which side of the number the result lay.

The target in data set [1] is T1, CK1γ2 (Homo sapiens, UniProt P78368). The data set is described as follows: Eurofins radiometric enzymatic assay CK1γ2. The format is biochemical.
The target of data set [2] is T2, CK1γ3 (Homo sapiens, UniProt Q9Y6M4). In words: Eurofins radiometric enzymatic assay CK1γ3. It counts as biochemical. Particulars: read-out: enzymatic IC50 CK1γ3, ATP at Km, N = 1.
Target sequence in this assay (Q9Y6M4 33-362): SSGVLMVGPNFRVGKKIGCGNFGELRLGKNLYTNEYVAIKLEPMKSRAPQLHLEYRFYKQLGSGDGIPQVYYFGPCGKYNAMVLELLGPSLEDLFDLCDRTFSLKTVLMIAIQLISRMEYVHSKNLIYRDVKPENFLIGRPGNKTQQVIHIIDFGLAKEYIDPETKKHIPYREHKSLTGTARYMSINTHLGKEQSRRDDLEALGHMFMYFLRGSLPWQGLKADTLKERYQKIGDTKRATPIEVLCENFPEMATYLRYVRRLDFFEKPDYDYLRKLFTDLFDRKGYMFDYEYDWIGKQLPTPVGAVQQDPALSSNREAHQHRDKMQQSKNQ
For data set [3], the target named is T3, CK1γ1 (Homo sapiens, UniProt Q9HCP0). The data set is described as follows: Eurofins radiometric enzymatic assay CK1γ1. The format is biochemical.
T3 sequence (Q9HCP0 whole entry): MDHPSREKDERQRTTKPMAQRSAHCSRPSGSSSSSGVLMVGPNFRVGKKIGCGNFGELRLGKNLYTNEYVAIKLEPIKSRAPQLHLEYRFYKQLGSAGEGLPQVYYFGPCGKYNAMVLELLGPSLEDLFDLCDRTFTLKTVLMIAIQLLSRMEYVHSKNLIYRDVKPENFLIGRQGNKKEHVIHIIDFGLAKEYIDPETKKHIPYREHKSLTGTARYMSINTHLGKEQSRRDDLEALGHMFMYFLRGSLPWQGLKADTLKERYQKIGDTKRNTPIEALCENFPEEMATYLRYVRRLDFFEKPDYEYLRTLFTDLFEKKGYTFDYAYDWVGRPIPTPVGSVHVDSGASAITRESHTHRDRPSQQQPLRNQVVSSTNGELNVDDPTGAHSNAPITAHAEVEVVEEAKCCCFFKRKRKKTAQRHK
Data set [4] addresses T1, CK1γ2. In words: CK1γ2 NanoBRET assay with tracer 23, intact cells. As to conditions: intact HEK293 cells, N = 1. It counts as cell-based.
Data set [5] addresses T3, CK1γ1. The data set is described as follows: CK1γ1 NanoBRET assay with tracer 23, intact cells. Particulars: intact HEK293 cells, N = 1. The format is cell-based.
Data set [6] deals with T2, CK1γ3. The data set is described as follows: CK1γ3 NanoBRET assay with tracer 23, intact cells. The format is cell-based. Particulars: intact HEK293 cells, N = 1.
Target sequence in this assay (Q9Y6M4 whole entry): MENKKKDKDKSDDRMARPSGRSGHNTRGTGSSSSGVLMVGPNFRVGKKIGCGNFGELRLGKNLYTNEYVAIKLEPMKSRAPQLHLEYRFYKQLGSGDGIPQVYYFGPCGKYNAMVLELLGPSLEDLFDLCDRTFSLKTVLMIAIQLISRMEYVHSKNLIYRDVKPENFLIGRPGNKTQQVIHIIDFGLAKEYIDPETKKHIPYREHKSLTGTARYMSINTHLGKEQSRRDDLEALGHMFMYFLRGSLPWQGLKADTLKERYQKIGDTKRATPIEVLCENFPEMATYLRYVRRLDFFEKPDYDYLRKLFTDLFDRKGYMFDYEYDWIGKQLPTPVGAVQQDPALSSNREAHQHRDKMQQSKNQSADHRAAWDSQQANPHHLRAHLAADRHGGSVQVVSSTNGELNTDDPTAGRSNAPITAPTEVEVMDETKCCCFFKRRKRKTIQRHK
Data set [7] concerns LRP6 phosphorylation at T1479. In words: Western blot of LRP6 phosphorylation in HEK293 cells. As to conditions: 5 μM, WNT3A and R-Spondin-1, 2 h. It counts as cell-based, human.
Data set [8] concerns the target panel of 192 kinases (Homo sapiens, UniProt P78368). The data set is described as follows: K192 NanoBRET kinase selectivity panel. The format is cell-based. As to conditions: read-out: %Fractional Occupancy.
The nature of the next data set: Dynamic light scattering. The format is physicochemical. Particulars: HBS buffer, 2% DMSO, 25 °C.
In another data set the test system is HEK293 cells. In words: CellTiter-Glo HEK293 cell viability assay. The format is cell-based, human. As to conditions: 10 μM for 24 or 48 h.
The target in another data set is T4, MOK (Homo sapiens, UniProt Q9UQ07).
T4 sequence (Q9UQ07 1-419): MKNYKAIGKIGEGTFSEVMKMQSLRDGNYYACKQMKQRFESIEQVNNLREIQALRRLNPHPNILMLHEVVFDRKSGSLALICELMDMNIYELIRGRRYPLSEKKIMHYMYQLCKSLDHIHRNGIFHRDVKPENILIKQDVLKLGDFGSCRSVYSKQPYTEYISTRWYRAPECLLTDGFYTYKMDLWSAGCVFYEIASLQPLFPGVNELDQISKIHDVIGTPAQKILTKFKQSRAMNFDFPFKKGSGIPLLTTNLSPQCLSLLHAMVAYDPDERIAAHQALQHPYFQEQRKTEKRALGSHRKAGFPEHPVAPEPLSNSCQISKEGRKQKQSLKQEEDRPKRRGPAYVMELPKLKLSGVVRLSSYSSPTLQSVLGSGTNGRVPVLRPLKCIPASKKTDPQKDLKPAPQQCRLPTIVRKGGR
In words: MOK NanoBRET assay. The format is cell-based.

For data set [9], the target named is panel of 192 kinases (Homo sapiens, UniProt Q9HAZ1). The data set is described as follows: K192 NanoBRET kinase selectivity panel. It counts as cell-based. Particulars: read-out: %Fractional Occupancy.
panel of 192 kinases (Homo sapiens, UniProt Q9HAZ1), sequence (Q9HAZ1 whole entry): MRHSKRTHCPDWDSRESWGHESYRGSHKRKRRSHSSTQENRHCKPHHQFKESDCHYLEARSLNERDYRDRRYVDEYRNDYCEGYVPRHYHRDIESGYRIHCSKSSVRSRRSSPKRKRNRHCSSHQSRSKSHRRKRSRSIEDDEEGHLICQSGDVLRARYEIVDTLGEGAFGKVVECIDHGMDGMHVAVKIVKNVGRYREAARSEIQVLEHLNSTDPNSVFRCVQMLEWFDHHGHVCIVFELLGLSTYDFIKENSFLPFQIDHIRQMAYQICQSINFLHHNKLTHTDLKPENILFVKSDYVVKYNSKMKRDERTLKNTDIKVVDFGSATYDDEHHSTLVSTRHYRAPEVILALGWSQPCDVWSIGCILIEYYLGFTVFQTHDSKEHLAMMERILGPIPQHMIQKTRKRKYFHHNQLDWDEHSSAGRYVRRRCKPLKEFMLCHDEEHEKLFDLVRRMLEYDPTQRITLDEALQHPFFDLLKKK
The target of a further data set is CLK4 (Homo sapiens, UniProt Q9HAZ1). The data set is described as follows: CLK4 NanoBRET assay.
CLK4, sequence (Q9HAZ1 whole entry): as above
Where [10] appears, read: read-out: NB IC50 CK1γ3, tracer 23.
Setting [11] is: read-out: NB IC50 CK1γ2, tracer 23.
Where [12] appears, read: read-out: NB IC50 CK1γ1, tracer 23.

T1 sequence (P78368 whole entry): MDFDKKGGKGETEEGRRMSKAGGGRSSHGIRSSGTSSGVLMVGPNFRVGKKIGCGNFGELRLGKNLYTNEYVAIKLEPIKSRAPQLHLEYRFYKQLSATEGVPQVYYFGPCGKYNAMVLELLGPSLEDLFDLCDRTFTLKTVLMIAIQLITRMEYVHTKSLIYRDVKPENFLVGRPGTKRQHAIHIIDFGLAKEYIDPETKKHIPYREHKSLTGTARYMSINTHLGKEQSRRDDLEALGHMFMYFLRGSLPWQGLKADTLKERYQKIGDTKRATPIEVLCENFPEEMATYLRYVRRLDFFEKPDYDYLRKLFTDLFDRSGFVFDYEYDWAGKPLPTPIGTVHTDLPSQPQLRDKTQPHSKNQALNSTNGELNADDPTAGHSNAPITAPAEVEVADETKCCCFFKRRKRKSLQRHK
panel of 192 kinases (Homo sapiens, UniProt P78368), sequence (P78368 whole entry): as above

For the compound `N#Cc1ccc2nc(Nc3ccc(N4CCOCC4)cc3)[nH]c2c1` [Compound 4, 2-((4-morpholinophenyl)amino)-1H-benzo[d]imidazole-6-carbonitrile], the IC50 against CK1γ2 [1] was determined as 81 nM; on CK1γ3 [2], 1300 nM; on CK1γ1 [3] it was 430 nM; on CK1γ2 [4] (NB IC50 CK1γ2, tracer 23), 920 nM; at CK1γ1 [5] (NB IC50 CK1γ1, tracer 23) it was 910 nM.

Turning to `COc1cc(N2CCOCC2)ccc1Nc1nc2ccc(C#N)cc2[nH]1` [Compound 5, 2-((2-Methoxy-4-morpholinophenyl)amino)-1H-benzo[d]imidazole-6-carbonitrile], the IC50 on CK1γ2 [1] is 4170 nM; on CK1γ3 [2] it was 2750 nM; against CK1γ1 [3], 5520 nM; on CK1γ3 [6] (NB IC50 CK1γ3, tracer 23) it was over 30000 nM; at CK1γ2 [4] (NB IC50 CK1γ2, tracer 23), over 30000 nM; against CK1γ1 [5] (NB IC50 CK1γ1, tracer 23), over 30000 nM. Moreover, in [7], the “LRP6 phosphorylation at T1479” value is given as “did not occur”.

With `N#Cc1ccc2nc(Nc3ccc(N4CCOCC4)c(F)c3)[nH]c2c1` [Compound 9, 2-((3-Fluoro-4-morpholinophenyl)amino)-1H-benzo[d]imidazole-6-carbonitrile], the IC50 stood at 34 nM against CK1γ2 [1]; 656 nM at CK1γ3 [2]; 212 nM on CK1γ1 [3]; 770 nM against CK1γ2 [4] (NB IC50 CK1γ2, tracer 23); 980 nM against CK1γ1 [5] (NB IC50 CK1γ1, tracer 23).

Take `N#Cc1ccc2nc(Nc3ccc(N4CCOCC4)c(C(F)(F)F)c3)[nH]c2c1` [Compound 10, 2-((4-Morpholino-3-(trifluoromethyl)phenyl)amino)-1H-benzo[d]imidazole-6-carbonitrile]: the IC50 against CK1γ2 [1] is 34 nM; against CK1γ1 [3], 120 nM; at CK1γ3 [6] (NB IC50 CK1γ3, tracer 23) it was 1350 nM; against CK1γ2 [4] (NB IC50 CK1γ2, tracer 23), 780 nM; on CK1γ1 [5] (NB IC50 CK1γ1, tracer 23) it was 1400 nM.

Turning to `N#Cc1ccc2nc(Nc3cc(F)c(N4CCOCC4)c(F)c3)[nH]c2c1` [Compound 11, 2-((3,5-Difluoro-4-morpholinophenyl)amino)-1H-benzo[d]imidazole-6-carbonitrile], the 50% inhibitory concentration (IC50) against CK1γ2 [1] amounted to 25 nM; at CK1γ3 [2], 976 nM; on CK1γ1 [3], 121 nM; on CK1γ3 [6] (NB IC50 CK1γ3, tracer 23), 3300 nM; on CK1γ1 [5] (NB IC50 CK1γ1, tracer 23), 920 nM.

On to `N#Cc1ccc2nc(Nc3ccc(N4CCOCC4)c(Cl)c3)[nH]c2c1` [Compound 14, 2-((3-Chloro-4-morpholinophenyl)amino)-1H-benzo[d]imidazole-6-carbonitrile], for which the receptor occupancy at 1 µM at panel of 192 kinases [8] was 74%. For the same compound, the IC50 at CK1γ3 [2] was 958 nM; on MOK, over 5000 nM; against CK1γ2 [4] (NB IC50 CK1γ2, tracer 23), 180 nM; at CK1γ1 [5] (NB IC50 CK1γ1, tracer 23), 180 nM. Moreover, in “Dynamic light scattering”, the “aqueous solubility in DLS” value is on record as “good aqueous solubility”. Moreover, the “HEK293 cell viability (CellTiter-Glo)” value in the data set on HEK293 cells is listed as “did not impact cell viability”.

For `N#Cc1ccc2nc(Nc3ccc(N4CCOCC4)c(Br)c3)[nH]c2c1` [Compound 15, 2-((3-Bromo-4-morpholinophenyl)amino)-1H-benzo[d]imidazole-6-carbonitrile], the IC50 on CK1γ3 [2] came out at 700 nM; at CK1γ3 [6] (NB IC50 CK1γ3, tracer 23), 110 nM; against CK1γ2 [4] (NB IC50 CK1γ2, tracer 23), 110 nM; against CK1γ1 [5] (NB IC50 CK1γ1, tracer 23) it was 580 nM.

Consider `N#Cc1ccc2[nH]c(Nc3ccc(N4CCCCC4)c(Cl)c3)nc2c1` [Compound 20, 2-((3-Chloro-4-(piperidin-1-yl)phenyl)amino)-1H-benzo[d]imidazole-5-carbonitrile], for which the IC50 on CK1γ3 [2] amounted to 475 nM; at CK1γ3 [6] (NB IC50 CK1γ3, tracer 23), 300 nM; against CK1γ2 [4] (NB IC50 CK1γ2, tracer 23) it was 250 nM; at CK1γ1 [5] (NB IC50 CK1γ1, tracer 23), 380 nM.

For `CN1CCN(c2ccc(Nc3nc4ccc(C#N)cc4[nH]3)cc2Cl)CC1` [Compound 21, 2-((3-Chloro-4-(4-methylpiperazin-1-yl)phenyl)amino)-1H-benzo[d]imidazole-6-carbonitrile], on panel of 192 kinases [9], the receptor occupancy at 1 µM was 49%. Moreover, the IC50 on CK1γ3 [2] came to 431 nM; against CLK4, 570 nM; on CK1γ3 [6] (NB IC50 CK1γ3, tracer 23) it was 180 nM; against CK1γ2 [4] (NB IC50 CK1γ2, tracer 23), 220 nM; at CK1γ1 [5] (NB IC50 CK1γ1, tracer 23) it was 170 nM.

`Cc1ccc2nc(NC(=O)CSc3nc4c(c(=O)n3-c3ccc(F)cc3)SCC4)sc2c1` [IWP-3, reference compound]: the IC50 at CK1γ3 [6] (setting [10]), on CK1γ2 [4] (setting [11]) and on CK1γ1 [5] (setting [12]) was over 30000 nM throughout.

For the compound `Nc1nccc(-c2c(-c3ccc(F)cc3)ncn2C2CCCCC2)n1` [PF-670462, reference compound], the IC50 on CK1γ3 [6] (setting [10]), at CK1γ2 [4] (setting [11]) and at CK1γ1 [5] (setting [12]) was over 30000 nM throughout.
